Assay results: patent US9540343B2 (Gilead Sciences, Inc., priority 2011, dated 2017)

How the values were obtained:
HIV-IIIb = assay: Test A: Antiviral assay in MT4 cells; format: cell-based, HIV-1; conditions: MT-4 cells infected with HIV-IIIb, 5 days, CellTiter-Glo; for inhibition at 2 µM: Human immunodeficiency virus 1, IIIB, MT4, 120 h, read-out: % inhibition at 2 μM, percent inhibition of virus-induced cell killing, from dose response curve at 2 uM drug; for % inhibition at 2 μM: percent inhibition of virus-induced cell killing, from dose response curve at 2 uM drug
in vitro = assay: in vitro
Procedure, shortened: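 Cytoprotection read-out: CellTiter-Glo chemiluminescence after 5 days at 37 °C of HIV-IIIb-infected MT-4 cells (m.o.i. 0.003) with compound in 10-point 3-fold dilutions, quadruplicate, 10% FBS. Cytotoxicity (CC50) measured identically without virus.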

[1] = human, uninfected MT-4 cells, CC50 (nM), same protocol as Test A, CellTiter-Glo
[2] = human, CC50 (nM), uninfected MT-4 cells, same protocol as Test A, CellTiter-Glo

SMILES	inhibition at 2 µM (HIV-IIIb)	CC50 at 5 days (in vitro; [1])	CC50 at 5 days (in vitro; [2])	% inhibition at 2 μM (HIV-IIIb)
O=C(Cc1c[nH]c2ccc(F)cc12)N[C@@H](Cc1cc(F)cc(F)c1)c1ncccc1-c1cccc(C(=O)NC2CC2)c1 [Example 66, (S)—N-cyclopropyl-3-(2-(2-(3,5-difluorophenyl)-1-(2-(5-fluoro-1H-indol-3-yl)acetamido)ethyl)pyridin-3-yl)benzamide]	-2%	16800 nM		
CC(C)c1cc(C(F)(F)F)n(CC(=O)N[C@@H](Cc2cc(F)cc(F)c2)c2ncccc2-c2ccc(F)c(C(N)=O)c2)n1 [Example 236D, (S)-5-(2-(2-(3,5-difluorophenyl)-1-(2-(3-isopropyl-5-(trifluoromethyl)-1H-pyrazol-1-yl)acetamido)ethyl)pyridin-3-yl)-2-fluorobenzamide]	15%	25600 nM		
O=C(Cn1nc(C(F)F)c2c1C(F)(F)C1CC21)N[C@@H](Cc1cc(F)cc(F)c1)c1ncccc1-c1ccc2nccn2c1 (stereo partly drawn) [Example 438, (S)—N-(1-(3-(imidazo[1,2-a]pyridine-6-yl)-pyridin-2-yl)-2-(3,5-difluorophenyl)ethyl)-2-(3-(difluoromethyl)-5,6-dihydro-4,5-(methano)-6,6-difluoro-cyclopenta[c]pyrazol-1(4H)-yl)acetamide]	81%	12100 nM		
Cc1cc2ncn(CC(=O)N[C@H](Cc3cc(F)cc(F)c3)c3ncncc3-c3ccc(Cl)cc3)c2cc1C [Example 279G, (R)—N-(1-(5-(4-chlorophenyl)pyrimidin-4-yl)-2-(3,5-difluorophenyl)ethyl)-2-(5,6-dimethyl-1H-benzo[d]imidazol-1-yl)acetamide]	82%	9300 nM		
Cc1c(C2CC2)c(C(F)(F)F)nn1CC(=O)N[C@@H](Cc1cc(F)cc(F)c1)c1ncccc1-c1ccc(F)c(C(N)=O)c1 [Example 291, (S)-5-(2-(1-(2-(4-cyclopropyl-5-methyl-3-(trifluoromethyl)-1H-pyrazol-1-yl)acetamido)-2-(3,5-difluorophenyl)ethyl)pyridin-3-yl)-2-fluorobenzamide]	86%	16500 nM		
CC(C)(CC(=O)N[C@@H](Cc1cc(F)cc(F)c1)c1ncccc1-c1ccc(F)c(C(N)=O)c1)n1ccc(C(F)(F)F)n1 (single isomer, unassigned) [Example 478E]	0%		21500 nM	
CC1(O)CCCc2c(C(F)(F)F)nn(CC(=O)N[C@@H](Cc3cc(F)cc(F)c3)c3ncccc3-c3ccc(F)c(C(N)=O)c3)c21 (stereo partly drawn) [Example 356, 5-(2-((1S)-2-(3,5-difluorophenyl)-1-(2-(7-hydroxy-7-methyl-3-(trifluoromethyl)-4,5,6,7-tetrahydro-1H-indazol-1-yl)acetamido)ethyl)pyridin-3-yl)-2-fluorobenzamide]	76%	20600 nM		
NC(=O)c1cc(-c2cccnc2[C@H](Cc2cc(F)cc(F)c2)NC(=O)Cn2nc(C(F)F)c3c2CCCC3)ccc1F [Example 307, (S)-5-(2-(1-(2-(3-(difluoromethyl)-4,5,6,7-tetrahydro-1H-indazol-1-yl)acetamido)-2-(3,5-difluorophenyl)ethyl)pyridin-3-yl)-2-fluorobenzamide]	99%	26700 nM		
NC(=O)c1cc(-c2cccnc2[C@H](Cc2cc(F)cc(F)c2)NC(=O)Cn2cc(C(F)(F)F)nc2COCc2ccccc2)ccc1F [Example 91B, (S)-5-(2-(1-(2-(2-(benzyloxymethyl)-4-(trifluoromethyl)-1H-imidazol-1-yl)acetamido)-2-(3,5-difluorophenyl)ethyl)pyridin-3-yl)-2-fluorobenzamide]	17%	22000 nM		
NC(=O)c1cc(-c2cccnc2[C@H](Cc2cc(F)cc(F)c2)NC(=O)Cn2cc(Br)c(C(F)(F)F)n2)ccc1F [Example 463, (S)-5-(2-(1-(2-(4-bromo-3-(trifluoromethyl)-1H-pyrazol-1-yl)acetamido)-2-(3,5-difluorophenyl)ethyl)pyridin-3-yl)-2-fluorobenzamide]	11%	14700 nM		
COc1ccc2[nH]cc(CC(=O)NC(Cc3cc(F)cc(F)c3)c3nccnc3-c3ccc(Cl)cc3)c2n1 (stereo not drawn) [Example 454, N-(1-(3-(4-chlorophenyl)pyrazin-2-yl)-2-(3,5-difluorophenyl)ethyl)-2-(5-methoxy-1H-pyrrolo[3,2-b]pyridin-3-yl)acetamide]	1%	11100 nM		
CC(C)(C)OC(=O)N1C(=O)CC[C@H]1C(=O)N[C@@H](Cc1cc(F)cc(F)c1)c1ncccc1-c1ccc(F)c(C(N)=O)c1 [Example 140, (S)-tert-butyl 2-((S)-1-(3-(3-carbamoyl-4-fluorophenyl)pyridin-2-yl)-2-(3,5-difluorophenyl)ethylcarbamoyl)-5-oxopyrrolidine-1-carboxylate]	0%	> 53000 nM		
COC(=O)Nc1ccc(-c2cccnc2[C@H](Cc2cc(F)cc(F)c2)NC(=O)Cn2nc(C(F)F)c3c2C(F)(F)C2CC32)cc1 (stereo partly drawn) [Example 68B, (S)-methyl 4-(2-(1-(3-(difluoromethyl)-5,6-dihydro-4,5-(methano)-6,6-difluoro-cyclopenta[c]pyrazol-1(4H)-ylacetamido)-2-(3,5-difluorophenyl)ethyl)pyridin-3-yl)phenylcarbamate]	28%	> 53200 nM		
CC(C)Oc1ccc(-c2cccnc2[C@H](Cc2cc(F)cc(F)c2)NC(=O)Cn2nc(C(F)F)c3c2C(F)(F)C2CC32)cc1 (stereo partly drawn) [Example 224, 2-(3-(difluoromethyl)-5,5-difluoro-3b,4,4a,5-tetrahydro-1H-cyclopropa[3,4]cyclopenta[1,2-c]pyrazol-1-yl)-N—((S)-2-(3,5-difluorophenyl)-1-(3-(4-isopropoxyphenyl)pyridin-2-yl)ethyl)acetamide]	17%	20400 nM		
N#Cc1nn(CC(=O)N[C@@H](Cc2cc(F)cc(F)c2)c2ncccc2-c2ccc(F)c(C(N)=O)c2)cc1C1CC1 [Example 337, (S)-5-(2-(1-(2-(3-cyano-4-cyclopropyl-1H-pyrazol-1-yl)acetamido)-2-(3,5-difluorophenyl)ethyl)pyridin-3-yl)-2-fluorobenzamide]	20%	27900 nM		
CC(C)(C)OC(=O)N1CC(=O)C[C@H]1C(=O)N[C@@H](Cc1cc(F)cc(F)c1)c1ncccc1-c1ccc(F)c(C(N)=O)c1 [Example 137, (S)-tert-butyl 2-((S)-1-(3-(3-carbamoyl-4-fluorophenyl)pyridin-2-yl)-2-(3,5-difluorophenyl)ethylcarbamoyl)-4-oxopyrrolidine-1-carboxylate]	1%	21700 nM		
CCC(C(=O)N[C@@H](Cc1cc(F)cc(F)c1)c1ncccc1-c1ccc(F)c(C(N)=O)c1)n1cc(C(C)=O)c2ccccc21 (stereo partly drawn) [Example 543, 5-(2-((1S)-1-(2-(3-acetyl-1H-indol-1-yl)butanamido)-2-(3,5-difluorophenyl)ethyl)pyridin-3-yl)-2-fluorobenzamide]			44000 nM	4%
NC(=O)c1cc(-c2cccnc2[C@H](Cc2cc(F)cc(F)c2)NC(=O)Cn2nc(C(F)(F)F)c3c2C(F)(F)CC3)ccc1F [Example 283C, (S)-5-(2-(1-(2-(6,6-difluoro-3-(trifluoromethyl)-5,6-dihydrocyclopenta[c]pyrazol-1(4H)-yl)acetamido)-2-(3,5-difluorophenyl)ethyl)pyridin-3-yl)-2-fluorobenzamide]	65%	24400 nM		
CC(C)(C)OC(=O)N1CCC[C@H]1C(=O)N[C@@H](Cc1cc(F)cc(F)c1)c1ncccc1-c1ccc(F)c(C(N)=O)c1 [Example 171, (S)-tert-butyl 2-((S)-1-(3-(3-carbamoyl-4-fluorophenyl)pyridin-2-yl)-2-(3,5-difluorophenyl)ethylcarbamoyl)pyrrolidine-1-carboxylate]	4%	11900 nM		
O=C(Cc1c[nH]c2ccc(F)cc12)N[C@H](Cc1cc(F)cc(F)c1)c1ncncc1-c1ccc(Cl)cc1 [Example 293, (R)—N-(1-(5-(4-chlorophenyl)pyrimidin-4-yl)-2-(3,5-difluorophenyl)ethyl)-2-(5-fluoro-1H-indol-3-yl)acetamide]	44%	11200 nM		
Cc1cc2ncn(C(CC(F)(F)F)C(=O)N[C@@H](Cc3cc(F)cc(F)c3)c3ncccc3-c3ccc(F)c(C(N)=O)c3)c2cc1C (single isomer, unassigned) [Example 540E]		> 53200 nM		−4%
NC(=O)c1cc(-c2cccnc2[C@H](Cc2cc(F)cc(F)c2)NC(=O)Cn2nc(C(F)(F)F)c3c2C(O)C2CC32)ccc1F (stereo partly drawn) [Example 154, 5-(2-((1S)-2-(3,5-difluorophenyl)-1-(2-(5-hydroxy-3-(trifluoromethyl)-3b,4,4a,5-tetrahydro-1H-cyclopropa[3,4]cyclopenta[1,2-c]pyrazol-1-yl)acetamido)ethyl)pyridin-3-yl)-2-fluorobenzamide]		36800 nM		90%
NC(=O)c1cc(-c2cccnc2[C@H](Cc2cc(F)cc(F)c2)NC(=O)Cc2c[nH]c3ccc(C(F)(F)F)cc23)ccc1F [Example 54G, (S)-5-(2-(2-(3,5-difluorophenyl)-1-(2-(5-(trifluoromethyl)-1H-indol-3-yl)acetamido)ethyl)pyridin-3-yl)-2-fluorobenzamide]	111%	10300 nM		
O=C(Cc1c[nH]c2ccc(F)cc12)N[C@@H](Cc1cc(F)cc(F)c1)c1ncccc1-c1ccc2nonc2c1 [Example 441, (S)—N-(1-(3-(benzo[c][1,2,5]oxadiazol-5-yl)pyridin-2-yl)-2-(3,5-difluorophenyl)ethyl)-2-(5-fluoro-1H-indol-3-yl)acetamide]	35%	8650 nM		
